According to ChEMBL document CHEMBL5729483, “Compositions and methods for treating infections” (2022):

Target: Bifunctional dihydrofolate reductase-thymidylate synthase (Plasmodium falciparum K1, UniProt P13922)
Test: TBD: TBD
Parameters: species or system Isolate K1 / Thailand

Sequence of Bifunctional dihydrofolate reductase-thymidylate synthase (P13922 whole entry): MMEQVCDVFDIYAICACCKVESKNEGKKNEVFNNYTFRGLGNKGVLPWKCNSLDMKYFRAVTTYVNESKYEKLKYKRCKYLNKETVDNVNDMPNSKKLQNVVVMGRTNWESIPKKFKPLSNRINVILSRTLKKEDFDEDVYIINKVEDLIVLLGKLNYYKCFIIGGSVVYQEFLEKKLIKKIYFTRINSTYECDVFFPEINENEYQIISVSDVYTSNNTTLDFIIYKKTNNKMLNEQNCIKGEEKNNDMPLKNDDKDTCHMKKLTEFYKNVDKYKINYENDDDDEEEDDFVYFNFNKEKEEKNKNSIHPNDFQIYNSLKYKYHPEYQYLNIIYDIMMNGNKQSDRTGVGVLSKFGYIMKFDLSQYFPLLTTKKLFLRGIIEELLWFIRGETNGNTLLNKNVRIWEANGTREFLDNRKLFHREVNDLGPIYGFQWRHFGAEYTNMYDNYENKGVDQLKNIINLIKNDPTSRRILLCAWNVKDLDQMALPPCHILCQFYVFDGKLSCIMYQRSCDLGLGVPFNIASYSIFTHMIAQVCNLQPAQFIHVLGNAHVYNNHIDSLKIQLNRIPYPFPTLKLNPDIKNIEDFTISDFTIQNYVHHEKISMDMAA

## Nc1ncc(N2CCN(c3cccc(C4CCOCC4)c3)CC2)c(N)n1
  IC50: 1.1 nM
